The test system of assay [1] is Torpedo. As to the kind of experiment: Effect on Torpedo nicotinic ACh receptor responses at 10 min determined by measuring percentage of original amplitude.
Assay [2] has as its system Torpedo. The assay is described as follows: Effect on Torpedo nicotinic ACh receptor responses at 0 min determined by measuring percentage of original amplitude.
Assay [3] relates to Rattus norvegicus. The assay is described as follows: Intraperitoneal dose required to facilitate the hippocampal neurotransmission in rat. It counts as functional, Hippocampus.

Consider `CCCCCC1CC1CC1CC1CC1CC1CC1CC1CCCC(=O)O` (configuration not stated), for which the Original amplitude in assay [1] is 78%; in assay [2] it was 88%.

On to `CCCCCCCCC1CC1CCCCCCCC(=O)O` (configuration not stated), for which the Original amplitude in assay [1] is 124%; in assay [2] it was 117%.

`CCCCC/C=C\C/C=C\CCCCCCCC(=O)O`: the Original amplitude in assay [1] is 175%; in assay [2] it was 72%.

In the case of `CCCCCC1CC1CC1CC1CCCCCCCC(=O)O` (configuration not stated) [FR-236924], the Dose in assay [3] came to 2 mg/kg. The Original amplitude in assay [1] is 156%; in assay [2] it was 122%.

Turning to `CCCCC/C=C\C/C=C\C/C=C\C/C=C\CCCC(=O)O`, the Original amplitude in assay [1] worked out at 139%; in assay [2] it was 78%.

Take `CCC1CC1CC1CC1CC1CC1CCCCCCCC(=O)O` (configuration not stated): the Original amplitude in assay [1] stood at 69%; in assay [2], 87%.

With `CC/C=C\C/C=C\C/C=C\CCCCCCCC(=O)O`, the Original amplitude in assay [1] amounted to 272%; in assay [2], 77%.

With `CCCCCCCC/C=C\CCCCCCCC(=O)O`, the Original amplitude came out at 139% in assay [1] and 108% in assay [2].

The values are drawn from ChEMBL document CHEMBL1136640, “The newly synthesized linoleic acid derivative FR236924 induces a long-lasting facilitation of hippocampal neurotransmission by targeting nicotinic acetylcholine receptors” (2003).
